Test system: persistent retinal vascular leakage
Test: DL-AAA model of persistent retinal vascular leakage, fluorescein angiography
Type: in vivo, DB rabbits
Conditions: 2-mg injection

Eylea® (aflibercept): commercial aflibercept product, macromolecular ligand for VEGF, used to validate the model
duration of effect on leakage: approximately two

— patent US11883525B2, “Bioerodible polyester polymer axitinib ocular implants and related methods of use” (Dose Medical Corporation, priority 2019, dated 2024)
